Assays:
[1] = test system: NK-YS (IL-2 2.5 ng/mL); assay: drug sensitivity score (DSS) (DSS units); higher = more sensitive; extreme values may be limits of the assay; conditions: 72 h
[2] = test system: normal primary NK cells, pool 3 (3 donors) (IL-2 2.5 ng/mL); assay: as above; conditions: 72 h
[3] = test system: NKL (IL-2 2.5 ng/mL); assay: as above; conditions: 72 h
[4] = test system: NK-92 (IL-2 2.5 ng/mL); assay: as above; conditions: 72 h
[5] = test system: normal primary NK cells, pool 1 (3 donors) (IL-2 2.5 ng/mL); assay: as above; conditions: 72 h
[6] = test system: normal primary NK cells, pool 1 (3 donors), resting (IL-2 0 ng/mL); assay: as above; conditions: 72 h
[7] = test system: normal primary NK cells, pool 2 (3 donors) (IL-2 2.5 ng/mL); assay: as above; conditions: 72 h
[8] = test system: IMC-1 (IL-2 20 ng/mL); assay: as above; conditions: 72 h
[9] = test system: YT (IL-2 2.5 ng/mL); assay: as above; conditions: 72 h
[10] = test system: KHYG-1 (IL-2 2.5 ng/mL); assay: as above; conditions: 72 h
[11] = test system: KAI3 (IL-2 2.5 ng/mL); assay: as above; conditions: 72 h
[12] = test system: DERL-7 (IL-2 2.5 ng/mL); assay: as above; conditions: 72 h
[13] = test system: SNK-6 (IL-2 2.5 ng/mL); assay: as above; conditions: 72 h
[14] = test system: NK-YS (IL-2 2.5 ng/mL); assay: percent inhibition of viability; higher = more inhibition; conditions: 72 h
[15] = test system: normal primary NK cells, pool 3 (3 donors) (IL-2 2.5 ng/mL); assay: as above; conditions: 72 h
[16] = test system: NKL (IL-2 2.5 ng/mL); assay: as above; conditions: 72 h
[17] = test system: NK-92 (IL-2 2.5 ng/mL); assay: as above; conditions: 72 h
[18] = test system: normal primary NK cells, pool 1 (3 donors) (IL-2 2.5 ng/mL); assay: as above; conditions: 72 h
[19] = test system: normal primary NK cells, pool 1 (3 donors), resting (IL-2 0 ng/mL); assay: as above; conditions: 72 h
[20] = test system: normal primary NK cells, pool 2 (3 donors) (IL-2 2.5 ng/mL); assay: as above; conditions: 72 h
[21] = test system: IMC-1 (IL-2 20 ng/mL); assay: as above; conditions: 72 h
[22] = test system: YT (IL-2 2.5 ng/mL); assay: as above; conditions: 72 h
[23] = test system: KHYG-1 (IL-2 2.5 ng/mL); assay: as above; conditions: 72 h
[24] = test system: KAI3 (IL-2 2.5 ng/mL); assay: as above; conditions: 72 h
[25] = test system: DERL-7 (IL-2 2.5 ng/mL); assay: as above; conditions: 72 h
[26] = test system: SNK-6 (IL-2 2.5 ng/mL); assay: as above; conditions: 72 h
[27] = test system: normal NK cells expanded with K562-aAPC; assay: drug sensitivity score (DSS) (DSS units); higher = more sensitive; extreme values may be limits of the assay; conditions: 72 h; IL-2 2.5 ng/mL
Method: (§1)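 Drug sensitivity and resistance testing on K562-aAPC-expanded normal NK cells: 5 concentrations (10-fold steps over a 10,000-fold range), 72 h at 37 °C, viability by CellTiter-Glo normalised to DMSO and benzethonium chloride controls; DSS from the fitted curve.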

[28] = test system: normal NK cells expanded with K562-aAPC; assay: percent inhibition of viability; higher = more inhibition; conditions: 72 h, IL-2 2.5 ng/mL
Method: as §1

CCn1c(C(=O)N(C2CC2)C2CC2)cc2c3c(ncn3C)c(Nc3cc(C)n(C)n3)nc21 (max concentration tested 10000 nM)
Conditions | drug sensitivity score
[1] | 3.29
[2] | 2.38
[3] | 8.84
[4] | 4.85
[5] | 3.85
[6] | 0
[7] | 3.12
[8] | 0
[9] | 4.02
[10] | 5.93
[11] | 14.5
[12] | 4.87
[13] | 0
[27] | 5.99

percent inhibition of viability [%]
Conditions | 1 nM | 10 nM | 100 nM | 1000 nM | 10000 nM
[14] | 4.8 | 6.33 | 4.46 | 16.1 | 36.6
[15] | 5.51 | -1.86 | 3.33 | 6.54 | 30.7
[16] | 0.96 | -1.04 | 3.26 | 41.2 | 70.4
[17] | 4.07 | 7.86 | -2 | 9.2 | 60.7
[18] | -3.85 | -1.69 | -6.9 | 11.7 | 41.6
[19] | -6.63 | -4.84 | -10.8 | 4.13 | 5.86
[20] | -2.38 | -1.43 | 0.57 | 3.6 | 49
[21] | -1.17 | 2.69 | 0.12 | -11.6 | -7.89
[22] | 9.25 | 9.54 | 7.25 | 14.5 | 46.5
[23] | 4.48 | 5.02 | 4.17 | 12.6 | 69.7
[24] | 14.1 | 21.2 | 27.8 | 44.8 | 76.3
[25] | 0.43 | 0.75 | 1.97 | 12.3 | 54.1
[26] | -4.81 | 22.8 | -3.45 | -16.6 | 7.74
[28] | 5.29 | 4.9 | 4.54 | 16 | 63.8

N#Cc1ccc2[nH]c(O)c(-c3ccc(CN4CCOCC4)cn3)c2c1 [AZD-1080] (max concentration tested 10000 nM)
Conditions | drug sensitivity score
[1] | 0.06
[2] | 0.08
[3] | 0.66
[4] | 0
[5] | 0
[6] | 0
[7] | 0
[8] | 3.76
[9] | 0.3
[10] | 0.09
[11] | 0.09
[12] | 4.59
[13] | 0
[27] | 0.28

percent inhibition of viability [%]
Conditions | 1 nM | 10 nM | 100 nM | 1000 nM | 10000 nM
[14] | -7.92 | -9.02 | -9.19 | -12.2 | 14.6
[15] | 6.51 | 4.2 | 7.89 | -9.63 | 14.5
[16] | -2.17 | -4.57 | -11.4 | -10.8 | 26.2
[17] | -5.77 | -9.41 | -10.5 | -11.2 | -14.5
[18] | -13.1 | 1.31 | -13.3 | -7.59 | -4.41
[19] | -0.71 | 6.84 | 6.15 | -35.3 | -109
[20] | 3.02 | 1.99 | -1.33 | -5.26 | 2.97
[21] | -6.19 | -4.98 | -2.55 | -0.22 | 68.7
[22] | -4.13 | -5.06 | -2.61 | -7.8 | 19
[23] | -9.77 | -11.1 | -7.95 | -10.2 | 15.1
[24] | -2.28 | -5.79 | -9.97 | -21.1 | 16.1
[25] | 0.69 | -2.27 | -0.41 | -4.2 | 88.5
[26] | -12 | -18.9 | -7.02 | -36.2 | -41.6
[28] | -8.89 | -11.1 | -9.66 | -4.69 | 17.9

O=C(O)CCCc1ccc(N(CCCl)CCCl)cc1 [Chlorambucil] (max concentration tested 10000 nM)
Conditions | drug sensitivity score
[1] | 6.96
[2] | 2.81
[3] | 9.13
[4] | 3.79
[5] | 4.31
[6] | 7.95
[7] | 4.06
[8] | 0.4
[9] | 0
[10] | 3.19
[11] | 7.66
[12] | 2
[13] | 6.91
[27] | 2.23

percent inhibition of viability [%]
Conditions | 1 nM | 10 nM | 100 nM | 1000 nM | 10000 nM
[14] | -6.87 | -0.61 | 3.17 | 13.6 | 84.7
[15] | -13.1 | -5.69 | -6.16 | -0.15 | 53
[16] | -13 | -7.71 | -6.04 | 27.6 | 92.1
[17] | -16.2 | -10.6 | -3.93 | -0.43 | 69.5
[18] | -5.48 | -9.5 | 0.36 | 3.15 | 70.4
[19] | -14.6 | -7.61 | 2.57 | 19.2 | 88.2
[20] | -11.7 | -6.52 | -4.85 | 1.94 | 69.2
[21] | -7.26 | -1.26 | -5.09 | -7.21 | 20.6
[22] | -0.58 | -2.33 | -2.72 | -5.92 | 9.19
[23] | -4.53 | -1.14 | -2.99 | -0.01 | 59
[24] | -12.3 | 0 | 13 | 21.6 | 84.8
[25] | -3.58 | -2.26 | -1.57 | 2.26 | 35.3
[26] | 9.02 | 25.1 | -1.14 | 10.8 | 92.4
[28] | -0.47 | -10 | -5.18 | -1.85 | 46.2

Source: the supplement of paper PMC5908809
